Source: patent publication US10597388B2, “Pyridazinone herbicides” (FMC CORPORATION, priority 2014, dated 2020)

Legend:
Experiment in all cases: Test D controlled growth environment herbicide test, pre- and postemergence
Format in all cases: in vivo
[1] = tested on: chamomile (scentless chamomile, Matricaria inodora)
Method in brief: (§1)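 Pre-emergence: seeds sown in silt loam soil were sprayed with compound in a non-phytotoxic solvent mix containing surfactant. Post-emergence: plants at 2 to 18 cm (1- to 4-leaf stage) in peat moss/vermiculite medium got the same formulation. Visual 0–100 rating versus controls after 14 to 21 d.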

[2] = tested on: wheat, spring (spring wheat, Triticum aestivum)
Method in brief: as §1

[3] = tested on: pigweed (Amaranthus retroflexus)
Method in brief: as §1

[4] = tested on: radish, wild (wild radish, Raphanus raphanistrum)
Method in brief: as §1

[5] = tested on: canarygrass (Phalaris minor)
Method in brief: as §1

[6] = tested on: field violet (Viola arvensis)
Method in brief: as §1

[7] = tested on: buckwheat, wild (wild buckwheat, Polygonum convolvulus)
Method in brief: as §1

[8] = tested on: oat, wild (wild oat, Avena fatua)
Method in brief: as §1

[9] = tested on: ryegrass, Italian (Italian ryegrass, Lolium multiflorum)
Method in brief: as §1

[10] = tested on: bluegrass (annual bluegrass, Poa annua)
Method in brief: as §1

[11] = tested on: barley, spring (spring barley, Hordeum vulgare)
Method in brief: as §1

[12] = tested on: blackgrass (Alopecurus myosuroides)
Method in brief: as §1

[13] = tested on: foxtail, green (green foxtail, Setaria viridis)
Method in brief: as §1

[14] = Postemergence, 31 g ai/ha, scale 0 to 100 (0 no effect, 100 complete control)
[15] = Postemergence, 125 g ai/ha, visual rating on scale 0 (no effect) to 100 (complete control), 14 to 21 d
[16] = Postemergence, 250 g ai/ha, scale 0 to 100 (0 no effect, 100 complete control)
[17] = postemergence, 62 g ai/ha, scale 0 to 100, 0 no effect, 100 complete control
[18] = Preemergence, 62 g ai/ha, scale 0 to 100 (0 no effect, 100 complete control)
[19] = Preemergence, 125 g ai/ha, scale 0 to 100 (0 no effect, 100 complete control)
[20] = Preemergence, 250 g ai/ha, scale 0 to 100 (0 no effect, 100 complete control)

COC(=O)Oc1c(C)nn(C)c(=O)c1-c1c(C)sc2c(C)cc(C)cc12 [Compound 81]
15: Plant response rating (scale of 0 to 100), Buckwheat, Wild ([7]; Preemergence, 31 g ai/ha) | Plant response rating, Buckwheat, Wild [7, 18] | Plant response rating, Buckwheat, Wild [7, 20]
100: Chamomile plant response rating [1, 14] | Plant response rating, Chamomile [1, 15] | Plant response rating, Chamomile [1, 16] | Plant response rating, Chamomile [1, 17] | Pigweed plant response rating [3, 14] | Plant response rating, Pigweed [3, 15] | Plant response rating, Pigweed [3, 16] | Plant response rating, Pigweed [3, 18] | Plant response rating, Pigweed [3, 19] | Plant response rating, Pigweed [3, 20] | Plant response rating, Pigweed [3, 17] | Plant response rating, Radish, Wild [4, 16] | Plant response rating, Canarygrass [5, 16] | Plant response rating, Canarygrass [5, 20] | Plant response rating, Field Violet [6, 15] | Plant response rating, Field Violet [6, 16] | Plant response rating, Field Violet [6, 19] | Buckwheat, Wild plant response rating [7, 14] | Plant response rating, Buckwheat, Wild [7, 15] | Plant response rating, Buckwheat, Wild [7, 16] | Plant response rating, Buckwheat, Wild [7, 17] | Plant response rating, Ryegrass, Italian [9, 20] | Plant response rating, Foxtail, Green [13, 16] | Plant response rating, Foxtail, Green [13, 19] | Plant response rating, Foxtail, Green [13, 20]
90: Plant response rating, Radish, Wild [4, 17] | Plant response rating, Oat, Wild [8, 17] | Plant response rating, Ryegrass, Italian [9, 17]
70: Plant response rating, Blackgrass [12, 19]
10: Plant response rating, Bluegrass [10, 18] | Plant response rating, Barley, Spring [11, 16]
40: Plant response rating, Wheat, Spring [2, 20] | Plant response rating, Bluegrass [10, 16]
55: Plant response rating (scale of 0 to 100), Ryegrass, Italian ([9]; Preemergence, 31 g ai/ha) | Plant response rating (scale of 0 to 100), Blackgrass ([12]; Preemergence, 31 g ai/ha)
65: Plant response rating, Canarygrass [5, 18] | Plant response rating, Ryegrass, Italian [9, 18] | Blackgrass plant response rating [12, 14] | Plant response rating, Foxtail, Green [13, 18]
20: Plant response rating, Wheat, Spring [2, 16] | Plant response rating, Bluegrass [10, 19] | Plant response rating, Bluegrass [10, 17]
85: Plant response rating, Canarygrass [5, 17] | Plant response rating, Field Violet [6, 17] | Oat, Wild plant response rating [8, 14] | Plant response rating (scale of 0 to 100), Oat, Wild ([8]; Preemergence, 31 g ai/ha) | Plant response rating, Oat, Wild [8, 18] | Plant response rating, Oat, Wild [8, 19] | Ryegrass, Italian plant response rating [9, 14] | Plant response rating, Ryegrass, Italian [9, 19] | Plant response rating, Blackgrass [12, 16] | Plant response rating, Blackgrass [12, 20]
30: Plant response rating, Bluegrass [10, 15]
5: Bluegrass plant response rating [10, 14] | Plant response rating, Barley, Spring [11, 20]
50: Plant response rating, Radish, Wild [4, 18]
60: Plant response rating, Bluegrass [10, 20] | Plant response rating, Blackgrass [12, 18]
0: Wheat, Spring plant response rating [2, 14] | Plant response rating, Wheat, Spring [2, 15] | Plant response rating (scale of 0 to 100), Wheat, Spring ([2]; Preemergence, 31 g ai/ha) | Plant response rating, Wheat, Spring [2, 18] | Plant response rating, Wheat, Spring [2, 19] | Plant response rating, Wheat, Spring [2, 17] | Plant response rating (scale of 0 to 100), Radish, Wild ([4]; Preemergence, 31 g ai/ha) | Plant response rating, Buckwheat, Wild [7, 19] | Plant response rating (scale of 0 to 100), Bluegrass ([10]; Preemergence, 31 g ai/ha) | Barley, Spring plant response rating [11, 14] | Plant response rating, Barley, Spring [11, 15] | Plant response rating (scale of 0 to 100), Barley, Spring ([11]; Preemergence, 31 g ai/ha) | Plant response rating, Barley, Spring [11, 18] | Plant response rating, Barley, Spring [11, 19] | Plant response rating, Barley, Spring [11, 17]
80: Plant response rating, Field Violet [6, 18] | Plant response rating, Blackgrass [12, 15] | Foxtail, Green plant response rating [13, 14]
95: Plant response rating (scale of 0 to 100), Pigweed ([3]; Preemergence, 31 g ai/ha) | Plant response rating, Radish, Wild [4, 15] | Plant response rating, Canarygrass [5, 15] | Plant response rating, Canarygrass [5, 19] | Plant response rating, Field Violet [6, 20] | Plant response rating, Oat, Wild [8, 15] | Plant response rating, Oat, Wild [8, 20] | Plant response rating, Ryegrass, Italian [9, 15] | Plant response rating, Ryegrass, Italian [9, 16] | Plant response rating, Foxtail, Green [13, 15] | Plant response rating, Foxtail, Green [13, 17]
75: Radish, Wild plant response rating [4, 14] | Canarygrass plant response rating [5, 14] | Plant response rating (scale of 0 to 100), Canarygrass ([5]; Preemergence, 31 g ai/ha) | Field Violet plant response rating [6, 14] | Plant response rating (scale of 0 to 100), Field Violet ([6]; Preemergence, 31 g ai/ha) | Plant response rating, Blackgrass [12, 17] | Plant response rating (scale of 0 to 100), Foxtail, Green ([13]; Preemergence, 31 g ai/ha)
98: Plant response rating, Oat, Wild [8, 16]
